# Experimental data reported in US20240415845A1, “Compositions of Iboga Alkaloids and Methods of Treatment” (priority 2022, published 2024).
# Values joined by “and” are separate entries in the source; they are usually repeats but may differ in a detail not shown here. Equal entries are not always repeated.
# How the values were obtained:
# [1] = system: special operations veterans with combat and/or blast exposure; assay: Clinician-rated psychiatric assessments taken together (CAPS-5, MADRS, HAM-A); assay type: in vivo, human
# Protocol: To further assess changes in comorbid psychiatric symptoms identified by the models, mean percent reduction, response rate, and remission rate according to the CAPS-5, MADRS and HAM-A (Table 1) were calculated. Response on the CAPS-5, MADRS, and HAM-A was defined as a reduction of at least 10 points (Mitchell, J. M. et al., Nat. Med. 27, 1025-1033(2021)), 50% (Leucht, S. et al., J. Affect. Disord. 210, 287-293 (2017)), and 50% (McIntyre, A. et al., Depress. Anxiety 24, 487-494 (2007)), respectively; remission as loss of diagnosis and a total score below 12 (Mitchell, J. M. et al. supra), <8 (Leucht, S. et al. supra), and <8(McIntyre, A. et al., supra), respectively. One participant's baseline scores met criteria for remission in all three scales and so were excluded from the calculation of response and remission rates, leaving 29 participants in these specific analyses.
# The results were similar, with remission rates at one-month follow up of at least 67% (Table 1-3 in Example 1). To determine if the participants with more severe TBI history may be biasing results, a sensitivity analysis excluding the participants with non-mild TBI; results was done, again with the results largely unchanged (Table 1-4 in Example 1), with remission rates at one-month follow up of at least 85%.
# [2] = system: special operations veterans with combat and/or blast exposure; assay: Structural MRI (T1w, FreeSurfer): brain volume and cortical thickness; assay type: in vivo, human
# Protocol: Structural imaging of the brain was also conducted on some of the subjects of Example 1. Gray matter constitutes about 40% of the brain and white matter constitutes about 60% of the brain. Gray matter contains most of the brain's neuronal cell nodes, it is fully developed once a person reaches their 20's and interprets sensor information from various parts of the body. White matter is made up of bundles which connect various gray matter areas, it develops throughout the 20's and peaks in middle age. Typical metrics analyzed in anatomical (T1-weighted, “T1w”) imaging include volume and/or shape of nuclei (e.g. caudate), volume and/or shape of ventricles of the brain, and cortical thickness (mm). These metrics can be used to study normal and abnormal neuroanatomy and are primarily used to quantify gray matter. A tool called FreeSurfer was applied to images for a T1w structural analysis (volume, cortical thickness) to adjust for bias, remove non-brain matter, segments by tissue, parcels the brain into standardized regions, and provides measurements of those regions. FreeSurfer measurements of whole brain volume, volume by tissue (gray, white, CSF), estimated intracranial volume (ICV), subcortical gray matter volume, cortical volume by region were done. […] In particular, analysis was done to determine if there was any loss in gray matter volume or cortical thickness, whether there was a loss in white matter volume or an increase in presence of white matter […]. Results are summarized in Table 3 and shown in FIGS. 17A-17B, and FIGS. 18A-18B.
# The fMRI images were also inspected to determine the difference in volume in regional areas of the brain from baseline to one month after treatment. FIG. 18A is a bar graph showing the effect size of a change in volume in 47 brain regions indicated along the x-axis. […] The fMRI images were also inspected for whole brain thickness at baseline and one month after treatment. […] FIG. 18B is a bar graph showing the effect size of a cortical thickness change for the brain regions indicated along the x-axis, from baseline to one month after treatment. […] The right and left parahippocampal gyrus are involved in visuospatial processing, including scene perception, navigation, and emotional contextualization. The left orbitofrontal gyrus is involved in impulse control and reward valuation. The left insular cortex is associated with both the affective-perceptual and cognitive-evaluative forms of empathy, as well as awareness of hunger, pain and fatigue. The left entorhinal cortex is a widespread network hub for memory, navigation, and perception of time.
# [3] = system: special operations veterans with combat and/or blast exposure; assay: Moral Injury Symptom Scale (MISS); assay type: in vivo, human
# Source text: A Moral Injury Symptom Scale (MISS) was also used to assess the subjects before and one month after treatment. Moral injury is when one acts in a manner or witnesses behaviors that go against an individual's values and moral beliefs. This may include betrayal by leadership or peers with adverse outcomes. Symptoms include guilt, remorse, shame, disgust, anger, inability to forgive oneself, engaging in self-sabotaging behaviors, such as feeling undeserving, affecting work and relationships, and questioning spirituality. The MISS is a multidimensional measure to assess the severity of moral injury symptoms. Possible score range is 45-450, with higher scores indicating more severe moral injury (Koenig et al., J. Relig Health, 57:249-265 (2018)).
# [4] = in vivo; cited from earlier work
# [5] = orally administered to humans; possibly longer in poor CYP2D6 metabolizers; cited from earlier work
# [6] = system: special operations veterans with combat and/or blast exposure; conditions: in vivo
# [7] = system: male veterans with a history of TBI; assay: Pseudo-continuous arterial spin labeling (pcASL) MRI of cerebral blood flow; assay type: in vivo, human; conditions: baseline, first post-treatment scan and one month post-treatment; paired t-test; 18 subjects
# Protocol: Arterial spin labeling (ASL) MR was used to measure cerebral blood flow in some of the subjects of the subjects enrolled in the study of Example 1. As described in Example 3, pseudo-continuous ASL (pcASL) was performed on the subject at baseline, about 1 week after treatment, and one-month after treatment. […] A first metric of interest was change in net quantity (mL/100 g tissue/min) of blood entering different regions of the brain. Images of the left posterior orbital gyrus, left anterior insula, left and right cerebral white matter at baseline and 1-week post treatment (images not shown) were analyzed and compared. […] A paired t-test across 3 time points—baseline (pre-treatment), 1 week post-treatment, and 1 month post-treatment—was employed.
# Arterial spin labeling (ASL) MRW was used to measure cerebral blood flow.
# A first metric of interest was change in net quantity (mL/100 g tissue/min) of blood entering different regions of the brain. Images of the left posterior orbital gyrus, left anterior insula, left and right cerebral white matter at baseline and 1-2 days post treatment (images not shown) were analyzed and compared.
# A paired t-test across 3 time points-baseline (pre-treatment), 1-2 days post-treatment, and one month post-treatment-was employed.
# [8] = one-week and one-month post, 29 participants
# [9] = baseline to one month after treatment
# [10] = one month after treatment vs baseline
smiles,measurement,setting,value
"CCC1CC2CC3c4[nH]c5ccc(OC)cc5c4CCN(C2)C13 (stereo not shown) [ibogaine, Ibogaine]","remission rates on CAPS-5, MADRS and HAM-A","[1]; one-month follow up, excluding participants with non-mild TBI",at least 85%
same,"remission rates on CAPS-5, MADRS and HAM-A","[1]; one-month follow up, subgroups meeting criteria for the disorder assessed by the scale",at least 67%
same,"remission rates on CAPS-5, MADRS and HAM-A",[1]; [8],at least 83%
same,"response rates on CAPS-5, MADRS and HAM-A",[1]; [8],at least 93%
same,"mean percent reductions on CAPS-5, MADRS and HAM-A","[1]; one-week and one-month post, all participants",at least 81%
same,"remission rates for comorbid PTSD, depression, and anxiety",[1]; secondary analyses,around 80%
same,regional volume change in cerebral white matter (left) and left ventral DC,[2]; [9],Increases in volume
same,regional volume change in posterior corpus callosum and left choroid plexus,[2]; [9],Decreases in volume
same,"White matter hypointensities (corrected for cerebral white matter), change","[2]; baseline vs one month post treatment, 17 subjects, two-tailed p = 0.0789",Two-tailed: no significant differences
same,"Subcortical Gray Matter volume, change","[2]; baseline vs one month post treatment, 17 subjects, two-tailed p = 0.0949",Two-tailed: no significant differences
same,"Total Gray Matter volume, change","[2]; baseline vs one month post treatment, 17 subjects, two-tailed p = 0.4755",Two-tailed: no significant differences
same,"Cortical Gray Matter volume, change","[2]; baseline vs one month post treatment, 17 subjects, two-tailed p = 0.4847",Two-tailed: no significant differences
same,damage to the brain by inspection of brain volume and thickness,[2]; one month after treatment,no apparent damage to the brain
same,"right hemisphere mean cortical thickness, change",[2]; [10],no significant difference
same,"Left hemisphere mean cortical thickness, change","[2]; one month after treatment vs baseline, two-tailed p=0.7146",no significant difference
same,"cortical thickness change in left entorhinal cortex, left-lateral-orbitofrontal pole, parahippocampal gyrus (bilaterally), left insular cortex, right-pars triangularis",[2]; one-month after treatment,Increases in cortical thickness
same,subjects showing a reduction in moral injury score,[3]; FIG. 6B,88%
same,MISS effect size,[3]; [10],1.14
same,average moral injury symptoms score (MISS),"[3]; one month after treatment, baseline about 220, score range 45-450",about 140
same,people who may suffer from cardiac arrest when treated,[4],Approximately 1 in 300
same,half-life,[5],about 7.5 hours
same,"Cognitive Flexibility Composite (average of D-KEFS TMT Condition 4, Color/Word Interference Condition 4, Verbal Fluency Category Switching) score",[6],56.6 ± 5.7 T score and 59.3 ± 5.0 T score
same,"Cognitive Flexibility Composite, effect size D",[6],0.74 and 0.43
same,"Cognitive Inhibition (D-KEFS Color/Word Interference, Condition 3) score",[6],59.9 ± 6.4 T score and 59.9 ± 7.5 T score
same,"Cognitive Inhibition (D-KEFS Color/Word Interference, Condition 3), effect size D",[6],1.22 and 0.62
same,Detection (CPT-3 Detection) score,[6],41.2 ± 8.2 T score and 39.5 ± 7.5 T score
same,"Detection (CPT-3 Detection), effect size D",[6],0.86 and 1.05
same,Phonemic Fluency (D-KEFS Verbal Fluency) score,[6],60.8 ± 10.3 T score and 64.0 ± 10.1 T score
same,"Problem Solving (D-KEFS TT, Total Achievement Score) score",[6],59.1 ± 7.1 T score and 59.5 ± 7.9 T score
same,"Problem Solving (D-KEFS TT, Total Achievement Score), effect size D",[6],0.44 and 0.49
same,Reaction Time (CPT-3 Reaction Time) score,[6],44.1 ± 6.8 T score and 46.4 ± 8.1 T score
same,"Reaction Time (CPT-3 Reaction Time), effect size D",[6],0.52 and 0.29
same,Semantic Fluency (D-KEFS Verbal Fluency) score,[6],60.2 ± 12.2 T score and 63.6 ± 7.8 T score
same,Sustained Attention (CPT-3 Hit Reaction Time Block Change) score,[6],50.8 ± 7.9 T score and 51.2 ± 7.7 T score
same,Verbal Memory (HVLT-R) score,[6],49.0 ± 9.2 T score and 53.1 ± 8.8 T score
same,Visuospatial Memory (BVMT-R) score,[6],58.8 ± 7.1 T score and 58.3 ± 6.6 T score
same,"Visuospatial Memory (BVMT-R), effect size D",[6],0.32 and 0.50
same,"adverse effect on processing speed, individual D-KEFS results",[6],no indication of an adverse effect
same,declines across any neuropsychological performance domain,[6],No declines
same,"executive functioning (inhibition, cognitive flexibility, problem-solving, phonemic fluency, working memory), effect sizes D",[6],0.31-1.22
same,performance changes in language (semantic fluency),[6],No significant performance changes
same,"processing speed, effect sizes D",[6],0.97-1.34
same,"slowing of reaction time, effect sizes D",[6],0.29-0.52
same,"sustained attention accuracy (detection), effect sizes D",[6],0.86-1.05
same,"Processing Speed (PSI, WAIS-IV) score",[6]; iv,59.2 ± 9.7 T score and 61.6 ± 10.7 T score
same,"Processing Speed (PSI, WAIS-IV), effect size D",[6]; iv,0.97 and 1.34
same,"Working Memory (WMI, WAIS-IV) score",[6]; iv,57.0 ± 9.5 T score and 57.6 ± 9.2 T score
same,"Working Memory (WMI, WAIS-IV), effect size D",[6]; iv,0.37 and 0.31
same,changes in absolute cerebral blood flow,[7],No significant changes
